Assay results taken from PubChem BioAssay AID2060888 (Molecular Pharmacology Branch, DTP, NCI, 2025).
Blank lines part the entries; values can stand above or below the compound they belong to.

System: 695427-040-R-J1-PDC complex spheroid viability
Assay: Anticancer human tumor 695427-040-R-J1-PDC patient-derived colon adenocarcinoma cell line growth inhibition [RAS]
Settings: for IC50: curve of first compound; for viability, T/C: stronger effect = lower value
In short: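 Tumour cells grown as complex spheroids with HUVEC endothelial cells and mesenchymal stem cells, treated with RAS pathway inhibitor combinations. Each agent spans half-log steps from near clinical Cmax, or 10 microM where Cmax is unknown.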

[1] = second compound 0.000949 µM, first compound 0.0316 µM
[2] = second compound 0.000949 µM, first compound 0.1 µM
[3] = second compound 0.000949 µM, first compound 0.316 µM
[4] = second compound 0.000949 µM, first compound 1 µM
[5] = second compound 0.003 µM, first compound 0.0316 µM
[6] = second compound 0.003 µM, first compound 0.1 µM
[7] = second compound 0.003 µM, first compound 0.316 µM
[8] = second compound 0.003 µM, first compound 1 µM
[9] = second compound 0.00949 µM, first compound 0.0316 µM
[10] = second compound 0.00949 µM, first compound 0.1 µM
[11] = second compound 0.00949 µM, first compound 0.316 µM
[12] = second compound 0.00949 µM, first compound 1 µM
[13] = second compound 0.03 µM, first compound 0.0316 µM
[14] = second compound 0.03 µM, first compound 0.1 µM
[15] = second compound 0.03 µM, first compound 0.316 µM
[16] = second compound 0.03 µM, first compound 1 µM
[17] = second compound 0.0949 µM, first compound 0.0316 µM
[18] = second compound 0.0949 µM, first compound 0.1 µM
[19] = second compound 0.0949 µM, first compound 0.316 µM
[20] = second compound 0.0949 µM, first compound 1 µM
[21] = second compound 0.3 µM, first compound 0.0316 µM
[22] = second compound 0.3 µM, first compound 0.1 µM
[23] = second compound 0.3 µM, first compound 0.316 µM
[24] = second compound 0.3 µM, first compound 1 µM
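Note: viability read after seven days of drug exposure.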
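Throughout, for viability, T/C: 100% = DMSO vehicle control viability.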

IC50 (second compound 0.000949 µM): > 1 µM
IC50 (second compound 0.003 µM): > 1 µM
IC50 (second compound 0.00949 µM): > 1 µM
IC50 (second compound 0.03 µM): > 1 µM
IC50 (second compound 0.0949 µM): > 1 µM
IC50 (second compound 0.3 µM): > 1 µM
Structure (SMILES): CCN1CCN(Cc2ccc(Nc3ncc(F)c(-c4cc(F)c5nc(C)n(C(C)C)c5c4)n3)nc2)CC1 + CCn1c(-c2cccnc2C(C)OC)c2c3cc(ccc31)N1CCOC(CC(NC(=O)C(C(C)C)N(C)C(=O)C3(F)CCN(C(=O)C#CC(C)(C)N(C)C)CC3)C(=O)N3CCCC(N3)C(=O)OCC(C)(C)C2)C1
viability, T/C (second compound 0.000949 µM, first compound 0.00316 µM): 109%
viability, T/C (second compound 0.000949 µM, first compound 0.01 µM): 88.1%
viability, T/C [1]: 84.9%
viability, T/C [2]: 74.2%
viability, T/C [3]: 99.1%
viability, T/C [4]: 87.1%
viability, T/C (second compound 0.003 µM, first compound 0.00316 µM): 100%
viability, T/C (second compound 0.003 µM, first compound 0.01 µM): 86.3%
viability, T/C [5]: 86.3%
viability, T/C [6]: 82.3%
viability, T/C [7]: 86.2%
viability, T/C [8]: 93%
viability, T/C (second compound 0.00949 µM, first compound 0.00316 µM): 118%
viability, T/C (second compound 0.00949 µM, first compound 0.01 µM): 84.3%
viability, T/C [9]: 87.1%
viability, T/C [10]: 88.9%
viability, T/C [11]: 91.2%
viability, T/C [12]: 53.9%
viability, T/C (second compound 0.03 µM, first compound 0.00316 µM): 96.6%
viability, T/C (second compound 0.03 µM, first compound 0.01 µM): 88.1%
viability, T/C [13]: 74.4%
viability, T/C [14]: 84.4%
viability, T/C [15]: 107%
viability, T/C [16]: 90.7%
viability, T/C (second compound 0.0949 µM, first compound 0.00316 µM): 99.2%
viability, T/C (second compound 0.0949 µM, first compound 0.01 µM): 79%
viability, T/C [17]: 91.8%
viability, T/C [18]: 87.3%
viability, T/C [19]: 60.6%
viability, T/C [20]: 76.6%
viability, T/C (second compound 0.3 µM, first compound 0.00316 µM): 87.8%
viability, T/C (second compound 0.3 µM, first compound 0.01 µM): 83.2%
viability, T/C [21]: 84.9%
viability, T/C [22]: 79%
viability, T/C [23]: 65.9%
viability, T/C [24]: 60.6%

IC50 (second compound 0.0316 µM): > 10 µM
IC50 (second compound 0.1 µM): > 10 µM
IC50 (second compound 0.316 µM): 8.96 µM
IC50 (second compound 1 µM): 7.32 µM
IC50 (second compound 3.16 µM): 4.29 µM
IC50 (second compound 10 µM): < 0.0316 µM
Structure (SMILES): CC1(O)CCCC1n1c(=O)c(C(F)F)cc2cnc(NC3CCN(S(C)(=O)=O)CC3)nc21 (stereo unspecified) + C#Cc1c(F)ccc2cc(O)cc(-c3ncc4c(N5CC6CCC(C5)N6)nc(OCC56CCCN5CC(F)C6)nc4c3F)c12
viability, T/C (second compound 0.0316 µM, first compound 0.0316 µM): 95.4%
viability, T/C (second compound 0.0316 µM, first compound 0.1 µM): 95.5%
viability, T/C (second compound 0.0316 µM, first compound 0.316 µM): 103%
viability, T/C (second compound 0.0316 µM, first compound 1 µM): 123%
viability, T/C (second compound 0.0316 µM, first compound 3.16 µM): 122%
viability, T/C (second compound 0.0316 µM, first compound 10 µM): 57.4%
viability, T/C (second compound 0.1 µM, first compound 0.0316 µM): 104%
viability, T/C (second compound 0.1 µM, first compound 0.1 µM): 94.7%
viability, T/C (second compound 0.1 µM, first compound 0.316 µM): 109%
viability, T/C (second compound 0.1 µM, first compound 1 µM): 120%
viability, T/C (second compound 0.1 µM, first compound 3.16 µM): 114%
viability, T/C (second compound 0.1 µM, first compound 10 µM): 52.5%
viability, T/C (second compound 0.316 µM, first compound 0.0316 µM): 84%
viability, T/C (second compound 0.316 µM, first compound 0.1 µM): 80.6%
viability, T/C (second compound 0.316 µM, first compound 0.316 µM): 97.6%
viability, T/C (second compound 0.316 µM, first compound 1 µM): 103%
viability, T/C (second compound 0.316 µM, first compound 3.16 µM): 104%
viability, T/C (second compound 0.316 µM, first compound 10 µM): 45.4%
viability, T/C (second compound 1 µM, first compound 0.0316 µM): 82.7%
viability, T/C (second compound 1 µM, first compound 0.1 µM): 75.3%
viability, T/C (second compound 1 µM, first compound 0.316 µM): 78.7%
viability, T/C (second compound 1 µM, first compound 1 µM): 89.8%
viability, T/C (second compound 1 µM, first compound 3.16 µM): 84.2%
viability, T/C (second compound 1 µM, first compound 10 µM): 38.1%
viability, T/C (second compound 3.16 µM, first compound 0.0316 µM): 59.7%
viability, T/C (second compound 3.16 µM, first compound 0.1 µM): 54.7%
viability, T/C (second compound 3.16 µM, first compound 0.316 µM): 64.3%
viability, T/C (second compound 3.16 µM, first compound 1 µM): 57.4%
viability, T/C (second compound 3.16 µM, first compound 3.16 µM): 57.3%
viability, T/C (second compound 3.16 µM, first compound 10 µM): 30%
viability, T/C (second compound 10 µM, first compound 0.0316 µM): 42.9%
viability, T/C (second compound 10 µM, first compound 0.1 µM): 41.9%
viability, T/C (second compound 10 µM, first compound 0.316 µM): 42.1%
viability, T/C (second compound 10 µM, first compound 1 µM): 43.4%
viability, T/C (second compound 10 µM, first compound 3.16 µM): 36.1%
viability, T/C (second compound 10 µM, first compound 10 µM): 15.6%

IC50 (second compound 0.000949 µM): > 10 µM
IC50 (second compound 0.003 µM): > 10 µM
IC50 (second compound 0.00949 µM): > 10 µM
IC50 (second compound 0.03 µM): 4.05 µM
IC50 (second compound 0.0949 µM): < 0.0316 µM
IC50 (second compound 0.3 µM): < 0.0316 µM
Structure (SMILES): CC(C)NCC(C(=O)N1CCN(c2ncnc3c2C(C)CC3O)CC1)c1ccc(Cl)cc1 (stereo unspecified) + CCn1c(-c2cc(N3CCN(C)CC3)cnc2C(C)OC)c2c3cc(ccc31)-c1csc(n1)CC(NC(=O)C1CC1C)C(=O)N1CCCC(N1)C(=O)OCC(C)(C)C2
viability, T/C [1]: 84.9%
viability, T/C [2]: 98.1%
viability, T/C [3]: 78.2%
viability, T/C [4]: 89.4%
viability, T/C (second compound 0.000949 µM, first compound 3.16 µM): 60.6%
viability, T/C (second compound 0.000949 µM, first compound 10 µM): 54.8%
viability, T/C [5]: 107%
viability, T/C [6]: 85.5%
viability, T/C [7]: 96.5%
viability, T/C [8]: 73%
viability, T/C (second compound 0.003 µM, first compound 3.16 µM): 85.6%
viability, T/C (second compound 0.003 µM, first compound 10 µM): 59.2%
viability, T/C [9]: 74.4%
viability, T/C [10]: 81.3%
viability, T/C [11]: 65%
viability, T/C [12]: 59.1%
viability, T/C (second compound 0.00949 µM, first compound 3.16 µM): 85.3%
viability, T/C (second compound 0.00949 µM, first compound 10 µM): 54.1%
viability, T/C [13]: 51.4%
viability, T/C [14]: 54.6%
viability, T/C [15]: 51.4%
viability, T/C [16]: 52.5%
viability, T/C (second compound 0.03 µM, first compound 3.16 µM): 60.1%
viability, T/C (second compound 0.03 µM, first compound 10 µM): 35.1%
viability, T/C [17]: 36.4%
viability, T/C [18]: 45.1%
viability, T/C [19]: 39.2%
viability, T/C [20]: 36%
viability, T/C (second compound 0.0949 µM, first compound 3.16 µM): 41.9%
viability, T/C (second compound 0.0949 µM, first compound 10 µM): 24.6%
viability, T/C [21]: 36.9%
viability, T/C [22]: 28.7%
viability, T/C [23]: 35.5%
viability, T/C [24]: 30.8%
viability, T/C (second compound 0.3 µM, first compound 3.16 µM): 27.9%
viability, T/C (second compound 0.3 µM, first compound 10 µM): 15.5%
